Test results reported in PubChem BioAssay AID194 (DTP/NCI, 2004).
“And” between values parts separate entries of the source, which are not always exact repeats. Equal values may be shown once. Results filed as inconclusive are left out.

Test system: BDF1 mice, B16 melanoma s.c., survival/tumor T/C
Experiment: NCI In Vivo Anticancer Drug Screen. Data for tumor model B16 Melanoma (subcutaneous) in B6D2F1 (BDF1) mice
Description: The antitumor activity of compounds was measured in mice bearing transplantable tumors. Survival or tumor size were measured and the results are expressed as the measurement made in the treated group (T) divided by the measurement made in the vehicle treated control group (C). The tumor model used in this assay is B16 Melanoma (subcutaneous) in B6D2F1 (BDF1) mice

[1] = endpoint: median survival time, dose: 2.59 mg/kg/injection, schedule: Q01DX007 (ip), vehicle: water, higher = longer survival
[2] = endpoint: median survival time, dose: 4.32 mg/kg/injection, schedule: Q01DX007 (ip), vehicle: water, higher = longer survival

With `O=NN(CCCl)C(=O)NCCO` the T/C [1] was 102 % of control and the T/C [2] was 98 % of control.
With `CS(C)=O` the T/C (endpoint: median survival time, dose: 1.5 grams/kg/injection, schedule: Q01DX009 (ip), vehicle: saline, higher = longer survival) was 105 % of control, the T/C (endpoint: median survival time, dose: 3.0 grams/kg/injection, schedule: Q01DX009 (ip), vehicle: saline, higher = longer survival) was 109 % of control and 111 % of control and the T/C (endpoint: median survival time, dose: 6.0 grams/kg/injection, schedule: Q01DX009 (ip), vehicle: saline, higher = longer survival) was 96 % of control and 108 % of control.
For `CNc1nc(N(C)C)nc(N(C)C)n1`, the T/C (endpoint: median survival time, dose: 67.0 mg/kg/injection, schedule: Q01DX009 (ip), vehicle: water, higher = longer survival) was 112 % of control, the T/C (endpoint: median survival time, dose: 100.0 mg/kg/injection, schedule: Q04DX003 (ip), vehicle: water, higher = longer survival) was 96 % of control and the T/C (endpoint: median survival time, dose: 150.0 mg/kg/injection, schedule: Q04DX003 (ip), vehicle: water, higher = longer survival) was 95 % of control. For the same molecule, the T/C (endpoint: median survival time, dose: 225.0 mg/kg/injection, schedule: Q04DX003 (ip), vehicle: water, higher = longer survival) was 90 % of control.
For `CSCCC(N)C(=O)O` (centres undefined), the T/C (endpoint: median survival time, dose: 40.0 mg/kg/injection, schedule: Q01DX009 (ip), vehicle: Klucel (hydroxypropylcellulose) (HPC), higher = longer survival) was 108 % of control, the T/C (endpoint: median survival time, dose: 80.0 mg/kg/injection, schedule: Q01DX009 (ip), vehicle: Klucel (hydroxypropylcellulose) (HPC), higher = longer survival) was 97 % of control and the T/C (endpoint: median survival time, dose: 160.0 mg/kg/injection, schedule: Q01DX009 (ip), vehicle: Klucel (hydroxypropylcellulose) (HPC), higher = longer survival) was 97 % of control. For the same molecule, the T/C (endpoint: median survival time, dose: 320.0 mg/kg/injection, schedule: Q01DX009 (ip), vehicle: Klucel (hydroxypropylcellulose) (HPC), higher = longer survival) was 122 % of control.
With `N=[N+]=CC(=O)CCC(NC(=O)C(CCC(=O)C=[N+]=N)NC(=O)CCC(N)C(=O)O)C(=O)O` (centres undefined) the T/C (endpoint: median survival time, dose: 0.1 mg/kg/injection, schedule: Q01DX009 (ip), vehicle: saline, higher = longer survival) was 95 % of control, the T/C (endpoint: median survival time, dose: 0.2 mg/kg/injection, schedule: Q01DX009 (ip), vehicle: saline, higher = longer survival) was 95 % of control and the T/C (endpoint: median survival time, dose: 0.4 mg/kg/injection, schedule: Q01DX009 (ip), vehicle: saline, higher = longer survival) was 94 % of control. For the same molecule, the T/C (endpoint: median survival time, dose: 0.8 mg/kg/injection, schedule: Q01DX009 (ip), vehicle: saline, higher = longer survival) was 91 % of control, the T/C (endpoint: median survival time, dose: 1.6 mg/kg/injection, schedule: Q01DX009 (ip), vehicle: saline, higher = longer survival) was 98 % of control and the T/C (endpoint: median survival time, dose: 12.5 micrograms/kg/injection, schedule: Q01DX009 (ip), vehicle: saline, higher = longer survival) was 113 % of control. The T/C (endpoint: median survival time, dose: 25.0 micrograms/kg/injection, schedule: Q01DX009 (ip), vehicle: saline, higher = longer survival) was 117 % of control, the T/C (endpoint: median survival time, dose: 50.0 micrograms/kg/injection, schedule: Q01DX009 (ip), vehicle: saline, higher = longer survival) was 97 % of control and the T/C (endpoint: median survival time, dose: 100.0 micrograms/kg/injection, schedule: Q01DX009 (ip), vehicle: saline, higher = longer survival) was 102 % of control. For the same molecule, the T/C (endpoint: median tumor weight (est.), dose: 0.2 mg/kg/injection, schedule: Q01DX009 (ip), vehicle: saline, higher = larger tumour) was 86 % of control.
For `O=[N+]([O-])c1ccc(/C=N/c2ncc(Br)s2)o1`, the T/C (endpoint: median survival time, dose: 1.56 mg/kg/injection, schedule: Q01DX009 (ip), vehicle: Klucel (hydroxypropylcellulose) (HPC), higher = longer survival) was 123 % of control, the T/C (endpoint: median survival time, dose: 3.12 mg/kg/injection, schedule: Q01DX009 (ip), vehicle: Klucel (hydroxypropylcellulose) (HPC), higher = longer survival) was 92 % of control and the T/C (endpoint: median survival time, dose: 3.13 mg/kg/injection, schedule: Q01DX009 (ip), vehicle: Klucel (hydroxypropylcellulose) (HPC), higher = longer survival) was 121 % of control. For the same molecule, the T/C (endpoint: median survival time, dose: 6.25 mg/kg/injection, schedule: Q01DX009 (ip), vehicle: Klucel (hydroxypropylcellulose) (HPC), higher = longer survival) was 110 % of control and 111 % of control and the T/C (endpoint: median survival time, dose: 12.5 mg/kg/injection, schedule: Q01DX009 (ip), vehicle: Klucel (hydroxypropylcellulose) (HPC), higher = longer survival) was 114 % of control.
`O=c1[nH]c(=O)n(C2CC(O)C(CO)O2)cc1C(F)(F)F` (centres undefined) was tested, and the T/C (endpoint: median survival time, dose: 10.0 mg/kg/injection, schedule: Q01DX009 (ip), vehicle: saline, higher = longer survival) was 103 % of control, the T/C (endpoint: median survival time, dose: 20.0 mg/kg/injection, schedule: Q01DX009 (ip), vehicle: saline, higher = longer survival) was 104 % of control and 111 % of control and the T/C (endpoint: median survival time, dose: 40.0 mg/kg/injection, schedule: Q01DX009 (ip), vehicle: saline, higher = longer survival) was 106 % of control. The T/C (endpoint: median survival time, dose: 80.0 mg/kg/injection, schedule: Q01DX009 (ip), vehicle: saline, higher = longer survival) was 89 % of control and the T/C (endpoint: median survival time, dose: 160.0 mg/kg/injection, schedule: Q01DX009 (ip), vehicle: saline, higher = longer survival) was 111 % of control.
In the case of `Cc1c(N)nc([C@H](CC(N)=O)NC[C@H](N)C(N)=O)nc1C(=O)N[C@H](C(=O)N[C@H](C)[C@@H](O)CC(=O)N[C@H](C(=O)NC(O[C@@H]1O[C@@H](C)[C@@H](N)[C@@H](O)[C@H]1O)C(O)c1nc(-c2nc(C(=O)NCCCCN)cs2)cs1)[C@@H](C)O)[C@@H](O[C@@H]1O[C@@H](CO)[C@@H](O)[C@H](O)[C@@H]1O[C@H]1O[C@H](CO)[C@@H](O)[C@H](OC(N)=O)[C@@H]1O)c1c[nH]cn1` (some centres undefined), the T/C (endpoint: median survival time, dose: 0.12 mg/kg/injection, schedule: Q01DX009 (ip), vehicle: water, higher = longer survival) is reported as 109 % of control, the T/C (endpoint: median survival time, dose: 0.25 mg/kg/injection, schedule: Q01DX009 (ip), vehicle: water, higher = longer survival) is reported as 89 % of control and the T/C (endpoint: median survival time, dose: 1.0 mg/kg/injection, schedule: Q01DX009 (ip), vehicle: saline, higher = longer survival) is reported as 180 % of control. The T/C (endpoint: median survival time, dose: 2.0 mg/kg/injection, schedule: Q01DX009 (ip), vehicle: saline, higher = longer survival) was 180 % of control, the T/C (endpoint: median survival time, dose: 2.0 mg/kg/injection, schedule: Q01DX009 (ip), vehicle: water, higher = longer survival) was 91 % of control and the T/C (endpoint: median survival time, dose: 4.0 mg/kg/injection, schedule: Q01DX009 (ip), vehicle: saline, higher = longer survival) was 180 % of control. The T/C (endpoint: median survival time, dose: 8.0 mg/kg/injection, schedule: Q01DX009 (ip), vehicle: saline, higher = longer survival) was 206 % of control, the T/C (endpoint: median survival time, dose: 12.0 mg/kg/injection, schedule: Q01DX009 (ip), vehicle: saline, higher = longer survival) was 174 % of control and the T/C (endpoint: median survival time, dose: 16.0 mg/kg/injection, schedule: Q01DX009 (ip), vehicle: saline, higher = longer survival) was 180 % of control.
In the case of `CCCCC[C@H](O)/C=C/[C@@H]1[C@@H](C/C=C\CCCC(=O)O)[C@@H](O)C[C@H]1O`, the T/C (endpoint: median survival time, dose: 2.5 mg/kg/injection, schedule: Q04DX002 (ip), vehicle: saline with Tween-80, higher = longer survival) is reported as 89 % of control, the T/C (endpoint: median survival time, dose: 5.0 mg/kg/injection, schedule: Q04DX002 (ip), vehicle: saline with Tween-80, higher = longer survival) is reported as 110 % of control and the T/C (endpoint: median survival time, dose: 10.0 mg/kg/injection, schedule: Q04DX002 (ip), vehicle: saline with Tween-80, higher = longer survival) is reported as 106 % of control. The T/C (endpoint: median survival time, dose: 20.0 mg/kg/injection, schedule: Q04DX002 (ip), vehicle: saline with Tween-80, higher = longer survival) was 93 % of control, the T/C (endpoint: median survival time, dose: 40.0 mg/kg/injection, schedule: Q04DX002 (ip), vehicle: saline with Tween-80, higher = longer survival) was 114 % of control and the T/C (endpoint: median survival time, dose: 80.0 mg/kg/injection, schedule: Q04DX002 (ip), vehicle: saline with Tween-80, higher = longer survival) was 86 % of control. The T/C (endpoint: median survival time, dose: 160.0 mg/kg/injection, schedule: Q04DX002 (ip), vehicle: saline with Tween-80, higher = longer survival) was 90 % of control.
`O=NN(CCCl)C(=O)NC1[C@H](O)CCC[C@@H]1O` (some centres undefined) was tested, and the T/C (endpoint: median survival time, dose: 1.56 mg/kg/injection, schedule: Q01DX007 (ip), vehicle: water, higher = longer survival) was 95 % of control, the T/C [1] was 108 % of control and the T/C [2] was 114 % of control.
With `Cc1[nH]nc(-c2ccon2)c1N=O` the T/C (endpoint: median survival time, dose: 12.5 mg/kg/injection, schedule: Q01DX009 (ip), vehicle: saline with Tween-80, higher = longer survival) was 91 % of control, the T/C (endpoint: median survival time, dose: 25.0 mg/kg/injection, schedule: Q01DX009 (ip), vehicle: saline with Tween-80, higher = longer survival) was 96 % of control and the T/C (endpoint: median survival time, dose: 50.0 mg/kg/injection, schedule: Q01DX009 (ip), vehicle: saline with Tween-80, higher = longer survival) was 100 % of control. The T/C (endpoint: median survival time, dose: 100.0 mg/kg/injection, schedule: Q01DX009 (ip), vehicle: saline with Tween-80, higher = longer survival) was 87 % of control.
`C=C(C)C12OC3(c4ccccc4)OC1C1C4OC4(CO)C(O)C4(O)C(=O)C(C)=CC4C1(O3)C(C)C2OC(=O)/C=C/C=C/c1ccccc1` (centres undefined) was tested, and the T/C (endpoint: median survival time, dose: 6.3 micrograms/kg/injection, schedule: Q01DX009 (ip), vehicle: saline with Tween-80, higher = longer survival) was 115 % of control, the T/C (endpoint: median survival time, dose: 12.5 micrograms/kg/injection, schedule: Q01DX009 (ip), vehicle: saline with Tween-80, higher = longer survival) was 99 % of control and the T/C (endpoint: median survival time, dose: 25.0 micrograms/kg/injection, schedule: Q01DX009 (ip), vehicle: saline with Tween-80, higher = longer survival) was 115 % of control. The T/C (endpoint: median survival time, dose: 50.0 micrograms/kg/injection, schedule: Q01DX009 (ip), vehicle: saline with Tween-80, higher = longer survival) was 103 % of control and the T/C (endpoint: median survival time, dose: 100.0 micrograms/kg/injection, schedule: Q01DX009 (ip), vehicle: saline with Tween-80, higher = longer survival) was 98 % of control.
`FC(F)c1nc2nc(Cl)c(Cl)nc2[nH]1` was tested, and the T/C (endpoint: median survival time, dose: 2.0 mg/kg/injection, schedule: Q01DX009 (ip), vehicle: Klucel (hydroxypropylcellulose) (HPC), higher = longer survival) was 106 % of control, the T/C (endpoint: median survival time, dose: 4.0 mg/kg/injection, schedule: Q01DX009 (ip), vehicle: Klucel (hydroxypropylcellulose) (HPC), higher = longer survival) was 114 % of control and the T/C (endpoint: median survival time, dose: 8.0 mg/kg/injection, schedule: Q01DX009 (ip), vehicle: Klucel (hydroxypropylcellulose) (HPC), higher = longer survival) was 97 % of control. For the same molecule, the T/C (endpoint: median survival time, dose: 8.0 mg/kg/injection, schedule: Q01DX009 (ip), vehicle: other, higher = longer survival) was 157 % of control, the T/C (endpoint: median survival time, dose: 16.0 mg/kg/injection, schedule: Q01DX009 (ip), vehicle: Klucel (hydroxypropylcellulose) (HPC), higher = longer survival) was 102 % of control and the T/C (endpoint: median survival time, dose: 16.0 mg/kg/injection, schedule: Q01DX009 (ip), vehicle: other, higher = longer survival) was 117 % of control. For the same molecule, the T/C (endpoint: median survival time, dose: 32.0 mg/kg/injection, schedule: Q01DX009 (ip), vehicle: Klucel (hydroxypropylcellulose) (HPC), higher = longer survival) was 121 % of control and the T/C (endpoint: median survival time, dose: 32.0 mg/kg/injection, schedule: Q01DX009 (ip), vehicle: other, higher = longer survival) was 89 % of control.
